Assay results: ChEMBL document CHEMBL5532747, “Potent, Selective, and Orally Bioavailable Quinazoline-Based STK17A/B Dual Inhibitors” (ACS Med Chem Lett, 2024)

Legend:
[1] = molecular target: T1, Serine/threonine-protein kinase 17A (Homo sapiens, UniProt Q9UEE5); assay: Inhibition of STK17A (unknown origin) in presence of ATP
T1 sequence (Q9UEE5 whole entry): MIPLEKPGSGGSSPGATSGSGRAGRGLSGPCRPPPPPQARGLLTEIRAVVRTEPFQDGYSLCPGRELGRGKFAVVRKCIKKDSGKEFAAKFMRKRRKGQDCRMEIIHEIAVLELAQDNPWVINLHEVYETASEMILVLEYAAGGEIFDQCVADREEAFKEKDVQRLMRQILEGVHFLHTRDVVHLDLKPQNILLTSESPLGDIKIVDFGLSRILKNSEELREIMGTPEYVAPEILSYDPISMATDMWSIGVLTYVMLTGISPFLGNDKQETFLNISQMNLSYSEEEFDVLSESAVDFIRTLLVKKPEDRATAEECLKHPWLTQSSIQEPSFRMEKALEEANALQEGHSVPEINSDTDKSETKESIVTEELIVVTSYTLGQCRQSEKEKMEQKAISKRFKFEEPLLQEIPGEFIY

[2] = molecular target: T2, Myosin light chain kinase family member 4 (Homo sapiens, UniProt Q86YV6); assay: Inhibition of MYLK4 (unknown origin) in presence of ATP
T2 sequence (Q86YV6 whole entry): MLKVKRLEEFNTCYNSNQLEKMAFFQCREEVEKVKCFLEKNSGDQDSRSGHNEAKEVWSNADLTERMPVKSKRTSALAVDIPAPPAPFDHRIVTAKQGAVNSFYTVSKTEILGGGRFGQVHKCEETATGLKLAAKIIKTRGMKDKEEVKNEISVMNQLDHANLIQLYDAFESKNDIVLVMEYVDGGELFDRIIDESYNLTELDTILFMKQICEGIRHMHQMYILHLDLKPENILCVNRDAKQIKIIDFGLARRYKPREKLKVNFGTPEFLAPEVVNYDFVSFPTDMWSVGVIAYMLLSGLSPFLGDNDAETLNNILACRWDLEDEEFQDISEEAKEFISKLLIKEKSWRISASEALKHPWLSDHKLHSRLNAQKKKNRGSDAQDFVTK

CYP1A2 = molecular target: T3, CYP1A2 (Homo sapiens, UniProt P05177); assay: Inhibition of CYP1A2 (unknown origin) using phenacetin as substrate at 10 uM by cocktail based assay relative to control; assay type: ADME; settings: probe phenacetin
T3 sequence (P05177 whole entry): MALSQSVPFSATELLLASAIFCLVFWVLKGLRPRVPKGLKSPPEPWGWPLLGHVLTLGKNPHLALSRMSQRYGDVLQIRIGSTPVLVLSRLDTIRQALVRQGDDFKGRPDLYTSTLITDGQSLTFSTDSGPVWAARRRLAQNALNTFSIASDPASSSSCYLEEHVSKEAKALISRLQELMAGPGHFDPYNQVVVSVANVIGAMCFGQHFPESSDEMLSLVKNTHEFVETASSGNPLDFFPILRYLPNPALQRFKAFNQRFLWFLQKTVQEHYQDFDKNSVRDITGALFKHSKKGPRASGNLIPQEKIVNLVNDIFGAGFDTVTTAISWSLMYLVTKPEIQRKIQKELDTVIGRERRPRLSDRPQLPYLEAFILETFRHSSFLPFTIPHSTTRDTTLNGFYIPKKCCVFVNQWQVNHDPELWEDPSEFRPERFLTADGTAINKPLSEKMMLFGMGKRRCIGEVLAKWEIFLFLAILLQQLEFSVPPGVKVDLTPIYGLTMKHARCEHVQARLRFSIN

CYP2C9 = CYP2C9 (Homo sapiens, UniProt P11712); assay: Inhibition of CYP2C9 (unknown origin) using tolbutamide as substrate at 10 uM by cocktail based assay relative to control; assay type: ADME; settings: probe tolbutamide
Sequence of CYP2C9 (P11712 whole entry): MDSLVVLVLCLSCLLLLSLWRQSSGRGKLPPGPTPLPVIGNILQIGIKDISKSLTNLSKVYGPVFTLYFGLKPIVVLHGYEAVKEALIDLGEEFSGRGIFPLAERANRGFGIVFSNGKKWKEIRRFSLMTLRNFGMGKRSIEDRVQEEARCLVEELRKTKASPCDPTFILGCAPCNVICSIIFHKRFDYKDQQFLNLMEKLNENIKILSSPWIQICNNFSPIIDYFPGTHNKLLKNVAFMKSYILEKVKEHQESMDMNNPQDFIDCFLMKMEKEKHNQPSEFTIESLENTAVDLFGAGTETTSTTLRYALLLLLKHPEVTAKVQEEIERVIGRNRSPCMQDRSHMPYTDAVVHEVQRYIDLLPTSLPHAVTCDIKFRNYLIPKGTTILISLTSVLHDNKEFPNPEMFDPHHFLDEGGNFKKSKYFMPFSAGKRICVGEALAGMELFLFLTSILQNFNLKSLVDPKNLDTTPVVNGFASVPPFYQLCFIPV

CYP2D6 = CYP2D6 (Homo sapiens, UniProt P10635); assay: Inhibition of CYP2D6 (unknown origin) using bufuralol as substrate at 10 uM by cocktail based assay relative to control; assay type: ADME; settings: probe bufuralol
Sequence of CYP2D6 (P10635 whole entry): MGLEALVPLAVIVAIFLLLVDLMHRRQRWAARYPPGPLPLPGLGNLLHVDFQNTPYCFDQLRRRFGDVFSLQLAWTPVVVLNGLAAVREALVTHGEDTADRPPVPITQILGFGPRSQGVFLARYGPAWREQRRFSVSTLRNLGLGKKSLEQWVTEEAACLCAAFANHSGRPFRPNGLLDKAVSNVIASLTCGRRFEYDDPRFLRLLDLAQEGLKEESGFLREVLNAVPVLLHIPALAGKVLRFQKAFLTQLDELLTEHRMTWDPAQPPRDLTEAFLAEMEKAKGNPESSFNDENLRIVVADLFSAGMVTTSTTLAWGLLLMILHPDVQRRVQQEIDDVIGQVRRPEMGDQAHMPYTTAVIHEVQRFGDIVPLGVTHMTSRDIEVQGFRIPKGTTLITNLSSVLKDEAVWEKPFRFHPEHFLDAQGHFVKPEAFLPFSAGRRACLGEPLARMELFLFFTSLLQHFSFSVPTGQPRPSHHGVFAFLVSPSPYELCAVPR

CYP3A4 = CYP3A4 (Homo sapiens, UniProt P08684); assay: Inhibition of CYP3A4 (unknown origin) using midazolam as substrate at 10 uM by cocktail based assay relative to control; assay type: ADME; settings: probe midazolam
Sequence of CYP3A4 (P08684 whole entry): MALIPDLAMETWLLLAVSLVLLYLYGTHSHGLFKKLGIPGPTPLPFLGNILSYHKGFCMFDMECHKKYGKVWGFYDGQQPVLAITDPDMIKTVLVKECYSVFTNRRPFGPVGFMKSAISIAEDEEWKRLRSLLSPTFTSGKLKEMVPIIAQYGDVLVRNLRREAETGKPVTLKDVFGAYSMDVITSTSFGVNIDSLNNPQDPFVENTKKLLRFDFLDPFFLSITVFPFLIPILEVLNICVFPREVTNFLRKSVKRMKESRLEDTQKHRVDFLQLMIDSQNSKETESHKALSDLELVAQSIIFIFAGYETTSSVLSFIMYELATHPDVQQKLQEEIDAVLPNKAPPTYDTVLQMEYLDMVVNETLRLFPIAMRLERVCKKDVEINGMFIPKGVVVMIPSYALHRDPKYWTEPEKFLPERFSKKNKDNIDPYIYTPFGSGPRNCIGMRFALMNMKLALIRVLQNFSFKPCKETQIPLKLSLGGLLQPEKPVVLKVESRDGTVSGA

[3] = Microsomal stability in human liver microsomes assessed as half life; assay type: ADME, Microsome
[4] = Microsomal stability in mouse liver microsomes assessed as half life; assay type: ADME, Microsome
[5] = molecular target: T4, Dual specificity protein kinase CLK4 (Homo sapiens, UniProt Q9HAZ1); assay: Inhibition of CLK4 (unknown origin) in presence of ATP
Target sequence in this assay (Q9HAZ1 whole entry): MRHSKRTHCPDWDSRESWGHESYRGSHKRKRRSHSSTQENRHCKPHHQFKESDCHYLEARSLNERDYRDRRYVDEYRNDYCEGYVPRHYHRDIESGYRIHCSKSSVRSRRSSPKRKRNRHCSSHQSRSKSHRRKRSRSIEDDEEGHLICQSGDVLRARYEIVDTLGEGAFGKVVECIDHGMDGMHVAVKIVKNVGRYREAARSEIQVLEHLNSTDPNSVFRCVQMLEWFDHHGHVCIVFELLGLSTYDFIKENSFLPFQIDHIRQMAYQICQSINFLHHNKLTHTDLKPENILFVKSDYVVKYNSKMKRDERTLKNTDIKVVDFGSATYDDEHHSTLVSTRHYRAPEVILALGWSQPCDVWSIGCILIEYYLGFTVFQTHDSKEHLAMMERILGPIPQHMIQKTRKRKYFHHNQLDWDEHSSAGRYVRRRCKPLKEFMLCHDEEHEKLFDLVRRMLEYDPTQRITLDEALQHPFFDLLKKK

[6] = molecular target: Inhibitor of nuclear factor kappa-B kinase subunit epsilon (Homo sapiens) (UniProt Q14164); assay: Inhibition of IKKepsilon (unknown origin) at 100 nM in presence of ATP relative to control
Sequence of Inhibitor of nuclear factor kappa-B kinase subunit epsilon (Homo sapiens) (Q14164 whole entry): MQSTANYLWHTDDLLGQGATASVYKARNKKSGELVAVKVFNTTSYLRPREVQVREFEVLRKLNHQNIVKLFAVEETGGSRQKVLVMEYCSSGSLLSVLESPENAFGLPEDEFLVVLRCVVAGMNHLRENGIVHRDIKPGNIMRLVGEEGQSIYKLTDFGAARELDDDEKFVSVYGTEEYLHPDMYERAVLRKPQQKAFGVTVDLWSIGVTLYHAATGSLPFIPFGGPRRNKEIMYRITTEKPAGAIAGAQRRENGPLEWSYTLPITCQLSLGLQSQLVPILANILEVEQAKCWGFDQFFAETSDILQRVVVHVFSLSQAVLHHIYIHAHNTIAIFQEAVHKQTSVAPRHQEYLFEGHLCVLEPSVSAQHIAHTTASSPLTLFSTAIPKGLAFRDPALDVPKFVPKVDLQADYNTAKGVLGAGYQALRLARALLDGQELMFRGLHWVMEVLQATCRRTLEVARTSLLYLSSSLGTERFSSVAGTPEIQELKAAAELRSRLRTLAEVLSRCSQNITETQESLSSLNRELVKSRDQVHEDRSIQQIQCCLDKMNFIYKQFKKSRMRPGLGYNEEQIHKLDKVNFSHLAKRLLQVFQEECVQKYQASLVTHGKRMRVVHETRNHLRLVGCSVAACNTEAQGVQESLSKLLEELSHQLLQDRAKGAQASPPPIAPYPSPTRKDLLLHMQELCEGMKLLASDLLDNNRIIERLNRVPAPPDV

[7] = molecular target: Dual specificity protein kinase CLK2 (Homo sapiens) (UniProt P49760); assay: Inhibition of CLK2 (unknown origin) at 100 nM in presence of ATP relative to control
[8] = molecular target: Serine/threonine-protein kinase TBK1 (Homo sapiens, UniProt Q9UHD2); assay: Inhibition of TBK1 (unknown origin) in presence of ATP
Sequence of Serine/threonine-protein kinase TBK1 (Q9UHD2 whole entry): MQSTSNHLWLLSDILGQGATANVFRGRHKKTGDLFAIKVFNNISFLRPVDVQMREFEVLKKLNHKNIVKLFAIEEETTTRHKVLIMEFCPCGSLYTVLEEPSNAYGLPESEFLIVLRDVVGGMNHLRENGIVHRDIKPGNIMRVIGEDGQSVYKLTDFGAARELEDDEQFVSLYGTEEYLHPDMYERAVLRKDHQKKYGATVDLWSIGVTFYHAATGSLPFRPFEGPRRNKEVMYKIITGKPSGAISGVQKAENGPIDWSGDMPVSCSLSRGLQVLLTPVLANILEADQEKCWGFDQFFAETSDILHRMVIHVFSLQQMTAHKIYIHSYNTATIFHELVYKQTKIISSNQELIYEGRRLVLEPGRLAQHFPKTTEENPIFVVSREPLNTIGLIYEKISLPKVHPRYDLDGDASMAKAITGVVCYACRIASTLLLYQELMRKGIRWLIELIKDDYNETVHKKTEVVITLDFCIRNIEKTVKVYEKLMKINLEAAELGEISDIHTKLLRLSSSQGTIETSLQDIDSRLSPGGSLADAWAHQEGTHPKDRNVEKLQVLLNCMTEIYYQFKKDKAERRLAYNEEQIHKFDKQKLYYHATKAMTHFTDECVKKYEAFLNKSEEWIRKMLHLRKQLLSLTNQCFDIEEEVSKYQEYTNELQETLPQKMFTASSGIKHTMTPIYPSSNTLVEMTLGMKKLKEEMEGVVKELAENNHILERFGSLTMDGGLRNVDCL

MOLM-13 = assay: Antiproliferative activity against human MOLM-13 cells assessed as inhibition of cell growth incubated for 72 hrs by Cell Titer-Glo luminescence assay; assay type: functional, cell-based; settings: MOLM-13, 72 h
HEL = assay: Antiproliferative activity against human HEL cells assessed as inhibition of cell growth incubated for 72 hrs by Cell Titer-Glo luminescence assay; assay type: functional, cell-based
Kasumi 1 = assay: Antiproliferative activity against human Kasumi 1 cells assessed as inhibition of cell growth incubated for 72 hrs by Cell Titer-Glo luminescence assay; assay type: functional, cell-based; settings: Kasumi 1, 72 h
[9] = Antiproliferative activity against human HEK293T cells assessed as inhibition of cell growth incubated for 72 hrs by Cell Titer-Glo luminescence assay; assay type: toxicity, cell-based, HEK-293T
[10] = molecular target: Myosin light chain kinase family member 4 (Homo sapiens) (UniProt Q86YV6); settings: dose 100.0 nM
Description: Inhibition of MYLK4 (unknown origin) at 100 nM in presence of ATP relative to control

[11] = molecular target: Serine/threonine-protein kinase 17A (Homo sapiens) (UniProt Q9UEE5); settings: dose 100.0 nM
Description: Inhibition of STK17A (unknown origin) at 100 nM in presence of ATP relative to control

[12] = molecular target: Serine/threonine-protein kinase TBK1 (Homo sapiens) (UniProt Q9UHD2); settings: dose 100.0 nM
Sequence of Serine/threonine-protein kinase TBK1 (Homo sapiens) (Q9UHD2 whole entry): as above
Description: Inhibition of TBK1 (unknown origin) at 100 nM in presence of ATP relative to control

[13] = molecular target: T4, Dual specificity protein kinase CLK4; settings: dose 100.0 nM
Target sequence in this assay (Q9HAZ1 whole entry, looked up): as the sequence (Q9HAZ1 whole entry) above
Description: Inhibition of CLK4 (unknown origin) at 100 nM in presence of ATP relative to control

[14] = Half life in C57BL/6 mouse at 10 mg/kg,po administration and measured upto 24 hrs; assay type: ADME, organism-based; settings: in vivo
[15] = Tmax in C57BL/6 mouse at 10 mg/kg,po administration and measured upto 24 hrs; assay type: ADME, organism-based; settings: in vivo
[16] = Cmax in C57BL/6 mouse at 10 mg/kg,po administration and measured upto 24 hrs; assay type: ADME, organism-based; settings: in vivo
[17] = AUClast in C57BL/6 mouse at 10 mg/kg,po administration and measured upto 24 hrs; assay type: ADME, organism-based; settings: in vivo
[18] = molecular target: Serine/threonine-protein kinase 17B (Homo sapiens) (UniProt O94768); assay: Inhibition of STK17B (unknown origin) at 1 uM in presence of ATP relative to control
[19] = molecular target: Serine/threonine-protein kinase Nek3 (Homo sapiens, UniProt P51956); assay: Inhibition of NEK3 (unknown origin) in presence of ATP
Sequence of Serine/threonine-protein kinase Nek3 (P51956 whole entry): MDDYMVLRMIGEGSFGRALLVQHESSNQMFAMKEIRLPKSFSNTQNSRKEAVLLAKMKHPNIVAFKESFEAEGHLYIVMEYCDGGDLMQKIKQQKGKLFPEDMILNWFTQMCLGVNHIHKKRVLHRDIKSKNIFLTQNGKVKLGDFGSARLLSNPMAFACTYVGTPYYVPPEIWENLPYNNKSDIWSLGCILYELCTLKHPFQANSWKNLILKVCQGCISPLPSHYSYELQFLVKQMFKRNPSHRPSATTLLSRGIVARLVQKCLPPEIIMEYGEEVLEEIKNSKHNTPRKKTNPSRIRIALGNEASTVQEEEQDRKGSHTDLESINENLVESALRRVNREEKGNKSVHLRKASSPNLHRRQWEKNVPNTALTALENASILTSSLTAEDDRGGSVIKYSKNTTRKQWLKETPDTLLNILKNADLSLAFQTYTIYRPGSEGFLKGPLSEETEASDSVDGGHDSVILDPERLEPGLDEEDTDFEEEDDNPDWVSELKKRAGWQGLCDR

[20] = molecular target: Serine/threonine-protein kinase Nek5 (Homo sapiens, UniProt Q6P3R8); assay: Inhibition of NEK5 (unknown origin) in presence of ATP
Sequence of Serine/threonine-protein kinase Nek5 (Q6P3R8 whole entry, the tested form may be a part): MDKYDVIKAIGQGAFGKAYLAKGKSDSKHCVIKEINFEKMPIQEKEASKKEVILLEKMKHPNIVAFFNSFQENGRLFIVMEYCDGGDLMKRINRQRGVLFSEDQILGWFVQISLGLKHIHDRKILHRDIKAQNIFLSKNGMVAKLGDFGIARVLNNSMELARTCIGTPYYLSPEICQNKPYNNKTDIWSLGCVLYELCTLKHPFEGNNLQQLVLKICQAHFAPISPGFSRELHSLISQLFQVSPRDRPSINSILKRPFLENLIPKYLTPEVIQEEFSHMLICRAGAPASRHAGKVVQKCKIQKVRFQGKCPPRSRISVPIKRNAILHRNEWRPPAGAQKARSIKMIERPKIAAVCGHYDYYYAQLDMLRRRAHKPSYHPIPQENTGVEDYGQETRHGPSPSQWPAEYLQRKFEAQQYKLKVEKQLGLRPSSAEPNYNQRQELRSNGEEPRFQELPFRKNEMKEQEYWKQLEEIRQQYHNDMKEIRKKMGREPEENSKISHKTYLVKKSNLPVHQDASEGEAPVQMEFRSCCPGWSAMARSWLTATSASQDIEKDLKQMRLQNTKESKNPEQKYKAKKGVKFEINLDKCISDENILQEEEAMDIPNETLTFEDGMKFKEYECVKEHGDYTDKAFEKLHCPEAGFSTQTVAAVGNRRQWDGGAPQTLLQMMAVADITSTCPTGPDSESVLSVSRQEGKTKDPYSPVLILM

LIM domain kinase 1 [21] = molecular target: T5, LIM domain kinase 1 (Homo sapiens, UniProt P53667); assay: Inhibition of LIMK1 (unknown origin) in presence of ATP
[22] = molecular target: Serine/threonine-protein kinase Nek5 (Homo sapiens) (UniProt Q6P3R8); settings: dose 100.0 nM
Sequence of Serine/threonine-protein kinase Nek5 (Homo sapiens) (Q6P3R8 whole entry): as the sequence (Q6P3R8 whole entry, the tested form may be a part) above
Description: Inhibition of NEK5 (unknown origin) at 100 nM in presence of ATP relative to control

[23] = molecular target: Serine/threonine-protein kinase Nek3 (Homo sapiens) (UniProt P51956); settings: dose 100.0 nM
Sequence of Serine/threonine-protein kinase Nek3 (Homo sapiens) (P51956 whole entry, the tested form may be a part): as the sequence (P51956 whole entry) above
Description: Inhibition of NEK3 (unknown origin) at 100 nM in presence of ATP relative to control

LIM domain kinase 1 [24] = molecular target: T5, LIM domain kinase 1; settings: dose 100.0 nM
Description: Inhibition of LIMK1 (unknown origin) at 100 nM in presence of ATP relative to control

Compound	IC50 [1] [nM]	IC50 [2] [nM]	inhibition at 10 µM (CYP1A2) [%]	inhibition at 10 µM (CYP2C9) [%]	inhibition at 10 µM (CYP2D6) [%]	inhibition at 10 µM (CYP3A4) [%]	half-life [3] [min]	half-life [4] [min]	IC50 [5] [nM]	also measured
CC(C)NC(=O)c1ccc(Nc2ncc(F)c(-c3ccc4nc(N5CCCC5)ncc4c3)n2)cc1	25	> 1000	< 10	< 10	< 10	< 10	44	22	> 10000	–
CC(C)NC(=O)c1cccc(Nc2nccc(-c3ccc4nc(N5CCCC5)ncc4c3)n2)c1	144	–	–	–	–	–	–	–	–	–
c1cc(-c2ccc3nc(N4CCCC4)ncc3c2)nc(Nc2ccc(N3CCNCC3)nc2)n1	18	2	–	–	–	–	–	–	124	inhibition [6]: 45%; inhibition [7]: 50%; IC50 [8]: 135 nM; IC50 (MOLM-13): 1340 nM; IC50 (HEL): 1930 nM; IC50 (Kasumi 1): 1190 nM; IC50 at 72 h [9]: 11700 nM; inhibition [10]: 95%; inhibition [11]: 75%; inhibition [12]: 45%; inhibition [13]: 50%
OCCN1CCC(c2ccc(Nc3nccc(-c4ccc5nc(N6C[C@@H]7C[C@H]6CO7)ncc5c4)n3)cn2)CC1	17	40	< 10	< 10	< 10	< 10	20	69	1120	–
CC(C)NC(=O)c1ccc(Nc2nccc(-c3ccc4nc(N5CCCC5)ncc4c3)n2)cc1	23	440	< 10	14	3	16	45	37	> 10000	half-life [14]: 162 min; Tmax [15]: 60 min; Cmax [16]: 1000 nM; AUC(0-t) at 24 h [17]: 4.2 µM·h; IC50 (MOLM-13): 920 nM; IC50 (HEL): 2310 nM; IC50 (Kasumi 1): 7670 nM; IC50 at 72 h [9]: 99500 nM; inhibition [18]: 98%; IC50 [19]: 245 nM; IC50 [20]: 132 nM; IC50 (LIM domain kinase 1 [21]): 650 nM; inhibition [22]: 45%; inhibition [23]: 40%; inhibition (LIM domain kinase 1 [24]): 46%
COC(=O)N1CCC(c2ccc(Nc3nccc(-c4ccc5nc(N6C[C@@H]7C[C@H]6CO7)ncc5c4)n3)cn2)CC1	29	–	–	–	–	–	–	–	–	–
OCCN1C[C@@H]2C[C@H]1CN2c1ccc(Nc2ncc(F)c(-c3ccc4nc(N5CCCC5)ncc4c3)n2)cn1	48	13	–	–	–	–	–	–	160	–
CC(C)NC(=O)c1ccc(Nc2nccc(-c3ccc4nc(N5CCOCC5)ncc4c3)n2)cc1	20	68	12	< 10	1	< 10	16	59	–	–
OCCN1CCC(n2cc(Nc3ncc(F)c(-c4ccc5nc(N6CCOCC6)ncc5c4)n3)cn2)CC1	21	17	< 10	< 10	< 10	< 10	97	83	–	IC50 (MOLM-13): 1960 nM; IC50 (HEL): 2960 nM; IC50 (Kasumi 1): 760 nM; IC50 at 72 h [9]: 16200 nM

Further lines, with some results ahead:

IC50 [1] [nM]	IC50 [2] [nM]	inhibition at 10 µM (CYP1A2) [%]	inhibition at 10 µM (CYP2C9) [%]	inhibition at 10 µM (CYP2D6) [%]	inhibition at 10 µM (CYP3A4) [%]	half-life [3] [min]	half-life [4] [min]	IC50 [5] [nM]	Compound	also measured
55	27	7	23	2	22	> 100	9	–	c1cc(-c2ccc3nc(N4CCCC4)ncc3c2)nc(Nc2ccc(N3CCNCC3)cc2)n1	–
316	–	–	–	–	–	–	–	–	O=C(NC1CCNCC1)c1ccc(Nc2nccc(-c3ccc4nc(N5CCCC5)ncc4c3)n2)cc1	–
> 10000	–	–	–	–	–	–	–	–	c1cc(-c2ccc3nc(N4CCCC4)ncc3c2)nc(Nc2ccc(OC3CCNCC3)cc2)n1	–
20	6	52	< 10	5	< 10	23	> 100	–	c1cc(-c2ccc3nc(N4CCCC4)ncc3c2)nc(Nc2cnn(C3CCNCC3)c2)n1	–
20	4	< 10	7	< 10	11	12	16	–	c1cc(-c2ccc3nc(N4CCOCC4)ncc3c2)nc(Nc2ccc(N3CCNCC3)cc2)n1	–
43	46	< 10	14	< 10	22	69	35	–	c1cc(-c2ccc3nc(N4CCCC4)ncc3c2)nc(Nc2ccc(N3CCOCC3)cc2)n1	–
66	–	–	–	–	–	–	–	–	COC(=O)N1CCC(c2ccc(Nc3nccc(-c4ccc5nc(N6CCCC6)ncc5c4)n3)cn2)CC1	–
51	–	–	–	–	–	–	–	–	CN1CCN(c2ccc(Nc3nccc(-c4ccc5nc(N6CCCC6)ncc5c4)n3)cc2)CC1	–
12	85	22	39	16	25	61	92	> 10000	CC(C)NC(=O)c1ccc(Nc2nccc(-c3ccc4nc(N5CCCC5)ncc4c3)n2)cn1	–
19	6	11	< 10	< 10	< 10	84	62	–	c1cc(-c2ccc3nc(N4CCOCC4)ncc3c2)nc(Nc2cnn(C3CCNCC3)c2)n1	–
